pEC50: −log10 of the molar value.
Each compound was assayed on Ovarian adenocarcinoma SKOV3 cells (assay: SKOV3 cell viability assay (MTT)). Conditions: Homo sapiens, SK-OV-3, 72 hours.
Type: cell-based
Procedure: Ovarian adenocarcinoma SKOV3 cells (ATCC# HTB-77) were cultured as monolayers in McCoy's 5a medium (HyClone) supplemented with 2.2 g/L sodium bicarbonate (Gibco), 10% FBS (HyClone) and 1% penicillin/streptomycin (HyClone). Cells were seeded in tissue culture-treated 96 well plates at 5000 cells/well in 150 ul of media. After 24 hours, triplicate wells of cells were treated with various concentrations of compound (0.01 to 10000 nM) diluted in 50 ul of culture media. Cells were incubated at 37° C. (5% CO2) in the presence of compound for 72 hours. Metabolic viability of remaining cells was assessed by MTT (thiazolyl blue tetrazolium bromide, Sigma) assay. 20 ul of MTT reagent (10 mg/ml) was added per well and plates were incubated for 4 hours at 37° C. (5% CO2). The supernatant was then removed from the plate. The converted MTT product was solubilized with 100 uL of isopropanol and the absorbance was read at 570 nm using a Tecan spectrophotometer.
(§1) The percentage viability of compound-treated cells was expressed as a fraction of the absorbance/luminescence signal obtained from non-treated cells. EC50 values (corresponding to 50% cell survival in the presence of compound as compared to untreated controls) were calculated from MTT survival curves (HCT116 and SKOV3) using BioAssay software (CambridgeSoft) and from Cell Titer-Glo survival curves (synovioycte and Jurkat cells) using GraphPad Prism (Graph Pad Software Inc.). In the below chart, EC50 values are summarized as follows: a=EC50 of less than 10 nM; b=EC50 of 10-100 nM; and c=EC50 of greater than 100 nM.

| SMILES | pEC50 |
| --- | --- |
| CN[C@@H](C)C(=O)N[C@H](C(=O)N1C[C@@H](NC(=O)C2CCC(C(=O)N[C@H]3C[C@@H](C(=O)NC4c5ccccc5-c5ccccc54)N(C(=O)[C@@H](NC(=O)[C@H](C)NC)C4CCCCC4)C3)CC2)C[C@H]1C(=O)NC1c2ccccc2-c2ccccc21)C1CCCCC1 (stereo partly shown) [Compound 2] | 7.00 to 8.00 |
| CN[C@@H](C)C(=O)N[C@H](C(=O)N1C[C@@H](NC(=O)C2CCC(C(=O)N[C@H]3C[C@@H](C(=O)N[C@@H]4CCCc5ccccc54)N(C(=O)[C@@H](NC(=O)[C@H](C)NC)C4CCCCC4)C3)CC2)C[C@H]1C(=O)N[C@@H]1CCCc2ccccc21)C1CCCCC1 (stereo partly shown) [Compound 4] | > 8.00 |

What follows are compounds tested on Colorectal carcinoma HCT116 cells (assay: HCT116 + ETR1 cell viability assay (MTT)). Conditions: with ETR1 (40 ng/ml), 72 hrs.
Type: cell-based
Procedure: Colorectal carcinoma HCT116 cells (ATCC# CCL-247) were cultured as monolayers in 96 well plates at a density of 2000 cells per well in 100 ul of McCoy's 5a medium (HyClone) supplemented with 2.2 g/L sodium bicarbonate (Gibco), 10% FBS (HyClone) and 1% penecillin/streptomycin (HyClone) for 24 hours. Triplicate wells of cells were treated for 72 hrs at 37° C. (5% CO2) with 50 ul of HGS agonistic Trail receptor antibody, ETR1 (40 ng/ml) in combination with 50 ul of diluted compound (0.01 to 10000 nM). Metabolic viability of remaining cells was assessed by MTT assay.
as §1

| SMILES | pEC50 |
| --- | --- |
| CN[C@@H](C)C(=O)N[C@H](C(=O)N1C[C@@H](NC(=O)C2CCC(C(=O)N[C@H]3C[C@@H](C(=O)NC4c5ccccc5-c5ccccc54)N(C(=O)[C@@H](NC(=O)[C@H](C)NC)C4CCCCC4)C3)CC2)C[C@H]1C(=O)NC1c2ccccc2-c2ccccc21)C1CCCCC1 (stereo partly shown) [Compound 2] | > 8.00 |
| CN[C@@H](C)C(=O)N[C@H](C(=O)N1C[C@@H](NC(=O)C2CCC(C(=O)N[C@H]3C[C@@H](C(=O)N[C@@H]4CCCc5ccccc54)N(C(=O)[C@@H](NC(=O)[C@H](C)NC)C4CCCCC4)C3)CC2)C[C@H]1C(=O)N[C@@H]1CCCc2ccccc21)C1CCCCC1 (stereo partly shown) [Compound 4] | > 8.00 |
| CN[C@@H](C)C(=O)N[C@H](C(=O)N1C[C@@H](NC(=O)c2ccc(C(=O)N[C@H]3C[C@@H](C(=O)N[C@@H]4CCCc5ccc(F)cc54)N(C(=O)[C@@H](NC(=O)[C@H](C)NC)C4CCCCC4)C3)cc2)C[C@H]1C(=O)N[C@@H]1CCCc2ccc(F)cc21)C1CCCCC1 [Compound 33] | > 8.00 |
| CN[C@@H](C)C(=O)N[C@H](C(=O)N1C[C@@H](NC(=O)c2ccc(C(=O)N[C@H]3C[C@@H](C(=O)N[C@H](C)c4ccc(OC)cc4)N(C(=O)[C@@H](NC(=O)[C@H](C)NC)C4CCCCC4)C3)cc2)C[C@H]1C(=O)N[C@H](C)c1ccc(OC)cc1)C1CCCCC1 [Compound 34] | > 8.00 |
| CN[C@@H](C)C(=O)N[C@H](C(=O)N1C[C@@H](NC(=O)c2ccc(C(=O)N[C@H]3C[C@@H](C(=O)N4CCc5ccccc5C4)N(C(=O)[C@@H](NC(=O)[C@H](C)NC)C4CCCCC4)C3)cc2)C[C@H]1C(=O)N1CCc2ccccc2C1)C1CCCCC1 [Compound 35] | 7.00 to 8.00 |
| CN[C@@H](C)C(=O)N[C@H](C(=O)N1C[C@@H](NC(=O)c2ccc(C(=O)N[C@H]3C[C@@H](C(=O)N[C@@H]4CCOc5cc(F)ccc54)N(C(=O)[C@@H](NC(=O)[C@H](C)NC)C4CCCCC4)C3)cc2)C[C@H]1C(=O)N[C@@H]1CCOc2cc(F)ccc21)C1CCCCC1 [Compound 36] | > 8.00 |
| CN[C@@H](C)C(=O)N[C@H](C(=O)N1C[C@@H](NC(=O)c2ccc(C(=O)N[C@H]3C[C@@H](C(=O)NC(C)(C)c4ccccc4)N(C(=O)[C@@H](NC(=O)[C@H](C)NC)C4CCCCC4)C3)cc2)C[C@H]1C(=O)NC(C)(C)c1ccccc1)C1CCCCC1 [Compound 37] | > 8.00 |
| CN[C@@H](C)C(=O)N[C@H](C(=O)N1C[C@@H](NC(=O)c2ccc(C(=O)N[C@H]3C[C@@H](C(=O)NCc4ccc(F)cc4)N(C(=O)[C@@H](NC(=O)[C@H](C)NC)C4CCCCC4)C3)cc2)C[C@H]1C(=O)NCc1ccc(F)cc1)C1CCCCC1 [Compound 38] | > 8.00 |
| CN[C@@H](C)C(=O)N[C@H](C(=O)N1C[C@@H](NC(=O)c2ccc(C(=O)N[C@H]3C[C@@H](C(=O)N4CC[C@H](c5ccccc5)C4)N(C(=O)[C@@H](NC(=O)[C@H](C)NC)C4CCCCC4)C3)cc2)C[C@H]1C(=O)N1CC[C@H](c2ccccc2)C1)C1CCCCC1 [Compound 39] | 7.00 to 8.00 |
| CN[C@@H](C)C(=O)N[C@H](C(=O)N1C[C@@H](NC(=O)c2ccc(C(=O)N[C@H]3C[C@@H](C(=O)N[C@@H]4CCCc5cc(F)ccc54)N(C(=O)[C@@H](NC(=O)[C@H](C)NC)C4CCCCC4)C3)cc2)C[C@H]1C(=O)N[C@@H]1CCCc2cc(F)ccc21)C1CCCCC1 [Compound 40] | > 8.00 |
| CN[C@@H](C)C(=O)N[C@H](C(=O)N1C[C@@H](NC(=O)c2ccc(C(=O)N[C@H]3C[C@@H](C(=O)N[C@H](C)c4ccc(F)cc4)N(C(=O)[C@@H](NC(=O)[C@H](C)NC)C4CCOCC4)C3)cc2)C[C@H]1C(=O)N[C@H](C)c1ccc(F)cc1)C1CCOCC1 [Compound 42] | 7.00 to 8.00 |
| CN[C@@H](C)C(=O)N[C@H](C(=O)N1C[C@@H](NC(=O)c2ccc(C(=O)N[C@H]3C[C@@H](C(=O)N[C@@H]4CCCc5ccccc54)N(C(=O)[C@@H](NC(=O)[C@H](C)NC)C4CCCC4)C3)cc2)C[C@H]1C(=O)N[C@@H]1CCCc2ccccc21)C1CCCC1 [Compound 43] | > 8.00 |
| CN[C@@H](C)C(=O)N[C@H](C(=O)N1C[C@@H](NC(=O)c2ccc(C(=O)N[C@H]3C[C@@H](C(=O)N[C@@H]4CCCc5ccccc54)N(C(=O)[C@@H](NC(=O)[C@H](C)NC)C4CCC4)C3)cc2)C[C@H]1C(=O)N[C@@H]1CCCc2ccccc21)C1CCC1 [Compound 44] | > 8.00 |
| CN[C@@H](C)C(=O)N[C@H](C(=O)N1C[C@@H](NC(=O)c2ccc(C(=O)N[C@H]3C[C@@H](C(=O)Nc4ccccc4-c4ncccn4)N(C(=O)[C@@H](NC(=O)[C@H](C)NC)C4CCCCC4)C3)cc2)C[C@H]1C(=O)Nc1ccccc1-c1ncccn1)C1CCCCC1 [Compound 45] | 7.00 to 8.00 |
| CN[C@@H](C)C(=O)N[C@H](C(=O)N1C[C@@H](NC(=O)c2ccc(C(=O)N[C@H]3C[C@@H](C(=O)N[C@@H]4CCCc5ccccc54)N(C(=O)[C@@H](NC(=O)[C@H](C)NC)C4CCOCC4)C3)cc2)C[C@H]1C(=O)N[C@@H]1CCCc2ccccc21)C1CCOCC1 [Compound 46] | 7.00 to 8.00 |
| CN[C@@H](C)C(=O)N[C@H](C(=O)N1C[C@@H](NC(=O)c2ccc(C(=O)N[C@H]3C[C@@H](C(=O)Nc4ccccc4)N(C(=O)[C@@H](NC(=O)[C@H](C)NC)C4CCCCC4)C3)cc2)C[C@H]1C(=O)Nc1ccccc1)C1CCCCC1 [Compound 47] | > 8.00 |
| CN[C@@H](C)C(=O)N[C@H](C(=O)N1C[C@@H](NC(=O)c2ccc(C(=O)N[C@H]3C[C@@H](C(=O)N(C)[C@H](C)c4ccccc4)N(C(=O)[C@@H](NC(=O)[C@H](C)NC)C4CCCCC4)C3)cc2)C[C@H]1C(=O)N(C)[C@H](C)c1ccccc1)C1CCCCC1 [Compound 48] | 7.00 to 8.00 |
| CN[C@@H](C)C(=O)N[C@H](C(=O)N1C[C@@H](NC(=O)c2ccc(C(=O)N[C@H]3C[C@@H](C(=O)Nc4cc(C)nn4-c4ccccc4)N(C(=O)[C@@H](NC(=O)[C@H](C)NC)C4CCCCC4)C3)cc2)C[C@H]1C(=O)Nc1cc(C)nn1-c1ccccc1)C1CCCCC1 [Compound 49] | 7.00 to 8.00 |
| CN[C@H](C(=O)N[C@H](C(=O)N1C[C@@H](NC(=O)c2ccc(C(=O)N[C@H]3C[C@@H](C(=O)N[C@@H]4CCCc5ccccc54)N(C(=O)[C@@H](NC(=O)[C@@H](NC)C4CC4)C4CCCCC4)C3)cc2)C[C@H]1C(=O)N[C@@H]1CCCc2ccccc21)C1CCCCC1)C1CC1 [Compound 50] | 7.00 to 8.00 |
| CN[C@@H](C)C(=O)N[C@H](C(=O)N1C[C@@H](NC(=O)c2ccc(C(=O)N[C@H]3C[C@@H](C(=O)Nc4ccccc4-c4ccccc4)N(C(=O)[C@@H](NC(=O)[C@H](C)NC)C4CCCCC4)C3)cc2)C[C@H]1C(=O)Nc1ccccc1-c1ccccc1)C1CCCCC1 [Compound 52] | > 8.00 |
| CCN[C@@H](C)C(=O)N[C@H](C(=O)N1C[C@@H](NC(=O)c2ccc(C(=O)N[C@H]3C[C@@H](C(=O)N[C@@H]4CCCc5ccccc54)N(C(=O)[C@@H](NC(=O)[C@H](C)NCC)C4CCCCC4)C3)cc2)C[C@H]1C(=O)N[C@@H]1CCCc2ccccc21)C1CCCCC1 [Compound 53] | > 8.00 |
| CN[C@@H](C)C(=O)N[C@H](C(=O)N1C[C@@H](NC(=O)c2cnc(C(=O)N[C@H]3C[C@@H](C(=O)N[C@@H]4CCOc5ccccc54)N(C(=O)[C@@H](NC(=O)[C@H](C)NC)C4CCCCC4)C3)cn2)C[C@H]1C(=O)N[C@@H]1CCOc2ccccc21)C1CCCCC1 [Compound 54] | > 8.00 |
| CN[C@@H](C)C(=O)N[C@H](C(=O)N1C[C@@H](NC(=O)c2cnc(C(=O)N[C@H]3C[C@@H](C(=O)N[C@@H]4CCCc5ccccc54)N(C(=O)[C@@H](NC(=O)[C@H](C)NC)C4CCCCC4)C3)cn2)C[C@H]1C(=O)N[C@@H]1CCCc2ccccc21)C1CCCCC1 [Compound 55] | > 8.00 |
| CCCN[C@@H](C)C(=O)N[C@H](C(=O)N1C[C@@H](NC(=O)c2ccc(C(=O)N[C@H]3C[C@@H](C(=O)N[C@@H]4CCCc5ccccc54)N(C(=O)[C@@H](NC(=O)[C@H](C)NCCC)C4CCCCC4)C3)cc2)C[C@H]1C(=O)N[C@@H]1CCCc2ccccc21)C1CCCCC1 [Compound 56] | > 8.00 |
| CN[C@@H](C)C(=O)N[C@H](C(=O)N1C[C@@H](NC(=O)c2ccc(C(=O)N[C@H]3C[C@@H](C(=O)N[C@H]4CCCc5ccccc54)N(C(=O)[C@@H](NC(=O)[C@H](C)NC)C4CCCCC4)C3)cc2)C[C@H]1C(=O)N[C@H]1CCCc2ccccc21)C1CCCCC1 [Compound 57] | 7.00 to 8.00 |
| CN[C@@H](C)C(=O)N[C@H](C(=O)N1C[C@@H](NC(=O)c2ccc(C(=O)N[C@H]3C[C@@H](C(=O)N[C@H]4CCOc5ccccc54)N(C(=O)[C@@H](NC(=O)[C@H](C)NC)C4CCCCC4)C3)cc2)C[C@H]1C(=O)N[C@H]1CCOc2ccccc21)C1CCCCC1 [Compound 58] | 7.00 to 8.00 |
